Measured values: patent US11096977B2, “Development of a standardized and effect-optimized herbal extract of Wedelia chinensis and its use for treating disease” (Academia Sinica, priority 2015, dated 2021)

Key:
PC-3 cells = assay: CyQUANT direct cell proliferation assay, PC-3; assay type: cell-based; settings: WCE 25 μg/ml or 10 nM docetaxel, 48 h
Protocol: (§1) After 48 h, viable cell numbers were determined using CyQUANT direct cell proliferation assay.

DU145 cells = assay: CyQUANT direct cell proliferation assay, DU145; assay type: cell-based; settings: WCE 25 μg/ml or 10 nM docetaxel, 48 h
Protocol: as §1

[1] = test system: PC-3 AR-negative prostate cancer cells; assay: murine model for androgen independent prostate cancer, orthotopic PC-3 luciferase cells; assay type: in vivo, mice; settings: daily WCE by gavage, weekly docetaxel into tail vein; 8 week course
Protocol: Tumor growth was measured weekly by bioluminescent imaging. Animals were also weighed weekly.

LNCaP cells = assay: growth rate of LNCaP cells; assay type: cell-based; settings: 20 μg/ml enzalutamide
LNCaP-CR cells = assay: growth rate of LNCaP-CR cells; assay type: cell-based; settings: 20 μg/ml enzalutamide

Row | Compound | growth of PC-3 cells (FIG. 3A) (PC-3 cells) | growth of DU145 cells (FIG. 3B) (DU145 cells) | body weight (FIG. 4B) [1] | growth of LNCaP cells (FIG. 2C) (LNCaP cells) | growth of LNCaP-CR cells (FIG. 2D) (LNCaP-CR cells)
1 | CC(=O)O[C@@]12CO[C@@H]1C[C@H](O)[C@@]1(C)C(=O)[C@H](O)C3=C(C)[C@@H](OC(=O)[C@H](O)[C@@H](NC(=O)OC(C)(C)C)c4ccccc4)C[C@@](O)([C@@H](OC(=O)c4ccccc4)[C@H]21)C3(C)C [docetaxel] | inhibited growth | inhibited growth | large decrease in body weight |  | 
2 | CNC(=O)c1ccc(N2C(=S)N(c3ccc(C#N)c(C(F)(F)F)c3)C(=O)C2(C)C)cc1F [enzalutamide] |  |  |  | significantly inhibited the growth | significantly less growth inhibition
